Like-named read-outs stand apart in the source and are kept apart here.
Assays:
[1] = system: ec308 SHV-5; test: Aztreonam potentiation (MPC@4), strain ec308 SHV-5; details: minimum BLI concentration inhibiting growth with aztreonam 4 μg/mL; tested up to 40 μg/mL
[2] = target: purified class A, C and D enzymes (β-lactamases) (Enterobacter cloacae, UniProt P05364); test: biochemical; type: biochemical
[3] = target: purified class A, C and D enzymes (β-lactamases) (Klebsiella pneumoniae, UniProt Q6XEC0); test: biochemical; type: biochemical; details: purified OXA-48; nitrocefin (NCF) as reporter substrate
[4] = target: purified class A, C and D enzymes (β-lactamases) (Klebsiella pneumoniae, UniProt Q9F663); test: biochemical; type: biochemical; details: purified KPC-2; nitrocefin (NCF) as reporter substrate
[5] = target: T1, purified class A, C and D enzymes (β-lactamases) (Acinetobacter baumannii, UniProt Q9L4P2); test: biochemical; type: biochemical; details: purified OXA-23; nitrocefin (NCF) as reporter substrate
T1 construct: rows headed: Ki (OXA-23, NCF), uM; other: purified OXA-23; nitrocefin (NCF) as reporter substrate
T1 sequence (Q9L4P2 whole entry): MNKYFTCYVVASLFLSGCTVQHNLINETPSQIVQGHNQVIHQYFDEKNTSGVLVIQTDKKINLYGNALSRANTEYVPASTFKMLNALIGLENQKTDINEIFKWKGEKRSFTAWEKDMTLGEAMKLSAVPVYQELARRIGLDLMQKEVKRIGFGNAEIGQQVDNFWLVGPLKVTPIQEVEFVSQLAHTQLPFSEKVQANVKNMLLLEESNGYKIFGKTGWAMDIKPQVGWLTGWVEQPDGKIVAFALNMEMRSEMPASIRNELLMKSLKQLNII

[6] = target: T2, purified class A, C and D enzymes (β-lactamases) (Pseudomonas aeruginosa, UniProt P24735); test: biochemical; type: biochemical
T2 construct: rows headed: Ki (Pa-AmpC, NCF), uM; other: purified Pa-AmpC; nitrocefin (NCF) as reporter substrate
T2 sequence (P24735 whole entry): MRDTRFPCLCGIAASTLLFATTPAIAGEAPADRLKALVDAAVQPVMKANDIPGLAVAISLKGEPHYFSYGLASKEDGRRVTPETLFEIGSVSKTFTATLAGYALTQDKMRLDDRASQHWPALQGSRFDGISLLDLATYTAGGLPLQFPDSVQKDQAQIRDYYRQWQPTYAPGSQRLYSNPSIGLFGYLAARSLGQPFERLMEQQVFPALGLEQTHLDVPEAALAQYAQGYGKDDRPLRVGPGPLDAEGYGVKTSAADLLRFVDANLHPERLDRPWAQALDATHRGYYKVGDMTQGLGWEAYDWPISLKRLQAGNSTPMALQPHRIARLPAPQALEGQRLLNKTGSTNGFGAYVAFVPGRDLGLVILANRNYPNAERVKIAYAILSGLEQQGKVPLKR

[7] = system: KP1086 OXA-48; test: Biapenem potentiation (MPC@1), strain KP1086 OXA-48; type: cell-based; details: minimum BLI concentration inhibiting growth with biapenem 1 μg/mL; tested up to 40 μg/mL
Experimental: (§1) Biapenem was present in the test medium at 1 μg/mL. […] Table 3 summarizes the BLI potency of biapenem potentiation (MPC@1) for two strains overexpressing class A (KPC) and class D (OXA-48) carbapenemases. Biapenem MIC for each strain is also shown.

[8] = system: KP1009 CTX-M-15; test: Aztreonam potentiation (MPC@4), strain KP1009 CTX-M-15; details: minimum BLI concentration inhibiting growth with aztreonam 4 μg/mL; tested up to 40 μg/mL
[9] = system: AB1053 OXA-72; test: Meropenem potentiation (MPC@8), strain AB1053 OXA-72; type: cell-based, Acinetobacter baumannii; details: minimum BLI concentration inhibiting growth with meropenem 8 μg/mL; tested up to 20 μg/mL
[10] = system: KP1010 SHV-12; test: Aztreonam potentiation (MPC@4), strain KP1010 SHV-12; details: minimum BLI concentration inhibiting growth with aztreonam 4 μg/mL; tested up to 40 μg/mL
[11] = system: ec302 TEM-10; test: Aztreonam potentiation (MPC@4), strain ec302 TEM-10; details: minimum BLI concentration inhibiting growth with aztreonam 4 μg/mL; tested up to 40 μg/mL
[12] = system: EC1010 CMY-6; test: Aztreonam potentiation (MPC@4), strain EC1010 CMY-6; details: minimum BLI concentration inhibiting growth with aztreonam 4 μg/mL; tested up to 40 μg/mL
[13] = system: KP1004 KPC-2; test: Biapenem potentiation (MPC@1), strain KP1004 KPC-2; type: cell-based; details: minimum BLI concentration inhibiting growth with biapenem 1 μg/mL; tested up to 40 μg/mL
Experimental: as §1

[14] = system: ECL1002; test: Aztreonam potentiation (MPC@4), strain ECL1002; details: minimum BLI concentration inhibiting growth with aztreonam 4 μg/mL; tested up to 40 μg/mL
[15] = system: KP1005 CTX-M-14; test: Tigemonam potentiation (MPC@4), strain KP1005 CTX-M-14; details: minimum BLI concentration inhibiting growth with tigemonam 4 μg/mL; tested up to 40 μg/mL
[16] = system: AB1054 OXA-23; test: Meropenem potentiation (MPC@8), strain AB1054 OXA-23; type: cell-based, Acinetobacter baumannii; details: minimum BLI concentration inhibiting growth with meropenem 8 μg/mL; tested up to 20 μg/mL
[17] = system: KP1004 KPC-2; test: Aztreonam potentiation (MPC@4), strain KP1004 KPC-2; details: minimum BLI concentration inhibiting growth with aztreonam 4 μg/mL; tested up to 40 μg/mL

Chain of purified class A, C and D enzymes (β-lactamases) (Enterobacter cloacae, UniProt P05364) (P05364 21-381): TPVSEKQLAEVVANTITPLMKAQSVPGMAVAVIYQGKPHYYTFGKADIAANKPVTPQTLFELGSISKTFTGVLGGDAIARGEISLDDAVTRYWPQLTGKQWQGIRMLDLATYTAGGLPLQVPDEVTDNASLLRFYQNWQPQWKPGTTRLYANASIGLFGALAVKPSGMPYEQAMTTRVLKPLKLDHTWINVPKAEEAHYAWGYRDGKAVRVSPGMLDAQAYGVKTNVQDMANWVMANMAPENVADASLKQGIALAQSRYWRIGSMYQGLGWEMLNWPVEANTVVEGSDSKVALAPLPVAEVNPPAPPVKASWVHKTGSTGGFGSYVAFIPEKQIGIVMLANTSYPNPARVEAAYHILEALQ

| SMILES | AZT MPC4 SHV-5 ec308 [1] | Ki (P99, NCF), uM [2] | Ki (OXA-48, NCF), uM [3] | Ki (KPC-2, NCF), uM [4] | Ki [5] [nM] | Ki [6] [nM] | BPM MPC1 OXA-48 KP1086 [7] | AZT MPC4 CTX-M-15 KP1009 [8] | MPM MPC8 AB1053 OXA-72 [9] | AZT MPC4 SHV-12 KP1010 [10] | AZT MPC4 TEM-10 ec302 [11] | AZT MPC4 CMY-6 EC1010 [12] | BPM MPC1 KP1004 KPC-2 [13] | AZT MPC4 ECL1002 [14] | TIG MPC4 CTX-M-14 KP1005 [15] | MPM MPC8 AB1054 OXA-23 [16] | AZT MPC4 KPC-2 KP1004 [17] | Ki (P99, NCF), uM ([2]; purified P99, nitrocefin (NCF) as reporter substrate) | Ki ([6]; purified Pa-AmpC, nitrocefin (NCF) as reporter substrate, read-out: Ki (Pa-AmpC, NCF)) [nM] |
| --- | --- | --- | --- | --- | --- | --- | --- | --- | --- | --- | --- | --- | --- | --- | --- | --- | --- | --- | --- |
| NCC#CCOc1ccc2c(c1C(=O)[O-])O[B-](O)(O)CC2.[Na+].[Na+] [Compound 32, Disodium; 8-(4-aminobut-2-ynoxy)-4,4-dihydroxy-5-oxa-4-boranuidabicyclo[4.4.0]deca-1(6),7,9-triene-7-carboxylate] | Y (Y = 5 μg/mL < MPC@4 ≤ 20 μg/mL) | X (key: X = Ki ≤ 0.1 μM; Y = 0.1 μM < Ki ≤ 1 μM; Z = Ki > 1 μM) | X (X = Ki ≤ 0.1 μM) | X (X = Ki ≤ 0.1 μM) | < 100 | < 100 | X (X = MPC@1 ≤ 5 μg/mL) | X (X = MPC@4 ≤ 5 μg/mL) | X (X = MPC@1 ≤ 5 μg/mL) | X (X = MPC@4 ≤ 5 μg/mL) | X (X = MPC@4 ≤ 5 μg/mL) | X (X = MPC@4 ≤ 5 μg/mL) | X (X = MPC@1 ≤ 5 μg/mL) | X (X = MPC@4 ≤ 5 μg/mL) | Y (Y = 5 μg/mL < MPC@4 ≤ 20 μg/mL) | X (X = MPC@1 ≤ 5 μg/mL) | X (X = MPC@4 ≤ 5 μg/mL) | – | – |
| CSc1ccc2c(c1C(=O)[O-])O[B-](O)(O)CC2.[Na+].[Na+] [Compound 36, Disodium; 4,4-dihydroxy-8-methylsulfanyl-5-oxa-4-boranuidabicyclo[4.4.0]deca-1(6),7,9-triene-7-carboxylate] | X (X = MPC@4 ≤ 5 μg/mL) | X (key: X = Ki ≤ 0.1 μM; Y = 0.1 μM < Ki ≤ 1 μM; Z = Ki > 1 μM) | X (X = Ki ≤ 0.1 μM) | X (X = Ki ≤ 0.1 μM) | < 100 | < 100 | X (X = MPC@1 ≤ 5 μg/mL) | Y (Y = 5 μg/mL < MPC@4 ≤ 20 μg/mL) | Y (Y = 5 μg/mL < MPC@1 ≤ 20 μg/mL) | X (X = MPC@4 ≤ 5 μg/mL) | X (X = MPC@4 ≤ 5 μg/mL) | X (X = MPC@4 ≤ 5 μg/mL) | X (X = MPC@1 ≤ 5 μg/mL) | X (X = MPC@4 ≤ 5 μg/mL) | Y (Y = 5 μg/mL < MPC@4 ≤ 20 μg/mL) | X (X = MPC@1 ≤ 5 μg/mL) | X (X = MPC@4 ≤ 5 μg/mL) | – | – |
| O=C([O-])c1cc(F)cc2c1O[B-](O)(O)CC2.[Na+].[Na+] [Compound 37, Disodium; 9-fluoro-4,4-dihydroxy-5-oxa-4-boranuidabicyclo[4.4.0]deca-1(6),7,9-triene-7-carboxylate] | Y (Y = 5 μg/mL < MPC@4 ≤ 20 μg/mL) | X (key: X = Ki ≤ 0.1 μM; Y = 0.1 μM < Ki ≤ 1 μM; Z = Ki > 1 μM) | X (X = Ki ≤ 0.1 μM) | X (X = Ki ≤ 0.1 μM) | < 100 | < 100 | X (X = MPC@1 ≤ 5 μg/mL) | Y (Y = 5 μg/mL < MPC@4 ≤ 20 μg/mL) | Z (Z = MPC@1 > 20 μg/mL) | X (X = MPC@4 ≤ 5 μg/mL) | Y (Y = 5 μg/mL < MPC@4 ≤ 20 μg/mL) | X (X = MPC@4 ≤ 5 μg/mL) | X (X = MPC@1 ≤ 5 μg/mL) | Y (Y = 5 μg/mL < MPC@4 ≤ 20 μg/mL) | Z (Z = MPC@4 > 20 μg/mL) | Z (Z = MPC@1 > 20 μg/mL) | X (X = MPC@4 ≤ 5 μg/mL) | – | – |
| O=C([O-])c1ccnc2c1O[B-](O)(O)CC2.[Na+].[Na+] [Compound 38, Disodium; 8,8-dihydroxy-7-oxa-2-aza-8-boranuidabicyclo[4.4.0]deca-1,3,5-triene-5-carboxylate] | Z (Z = MPC@4 > 20 μg/mL) | Z (key: X = Ki ≤ 0.1 μM; Y = 0.1 μM < Ki ≤ 1 μM; Z = Ki > 1 μM) | X (X = Ki ≤ 0.1 μM) | Y (Y = 0.1 μM < Ki ≤ 1 μM) | > 1000 | > 1000 | Y (Y = 5 μg/mL < MPC@1 ≤ 20 μg/mL) | Z (Z = MPC@4 > 20 μg/mL) | Z (Z = MPC@1 > 20 μg/mL) | Z (Z = MPC@4 > 20 μg/mL) | Z (Z = MPC@4 > 20 μg/mL) | Y (Y = 5 μg/mL < MPC@4 ≤ 20 μg/mL) | X (X = MPC@1 ≤ 5 μg/mL) | Z (Z = MPC@4 > 20 μg/mL) | Z (Z = MPC@4 > 20 μg/mL) | Z (Z = MPC@1 > 20 μg/mL) | Y (Y = 5 μg/mL < MPC@4 ≤ 20 μg/mL) | – | – |
| O=C(O)c1c(OC(CO)CO)ccc2c1OB(O)CC2 [Compound 44, 2-hydroxy-7-[2-hydroxy-1-(hydroxymethyl)ethoxy]-3,4-dihydro-1,2-benzoxaborinine-8-carboxylic acid] | Y (Y = 5 μg/mL < MPC@4 ≤ 20 μg/mL) | – | X (X = Ki ≤ 0.1 μM) | X (X = Ki ≤ 0.1 μM) | < 100 | – | X (X = MPC@1 ≤ 5 μg/mL) | Y (Y = 5 μg/mL < MPC@4 ≤ 20 μg/mL) | X (X = MPC@1 ≤ 5 μg/mL) | X (X = MPC@4 ≤ 5 μg/mL) | Y (Y = 5 μg/mL < MPC@4 ≤ 20 μg/mL) | X (X = MPC@4 ≤ 5 μg/mL) | X (X = MPC@1 ≤ 5 μg/mL) | Y (Y = 5 μg/mL < MPC@4 ≤ 20 μg/mL) | Z (Z = MPC@4 > 20 μg/mL) | Y (Y = 5 μg/mL < MPC@1 ≤ 20 μg/mL) | X (X = MPC@4 ≤ 5 μg/mL) | X (X = Ki ≤ 0.1 μM) | < 100 |

Reference: US10618918B2, “Substituted boronic acids as antimicrobials” (priority 2015, dated 2020)
